These are literature values, as cited in patent US20110206693A1, “LYSINE RIBOSWITCH AND COMPOSITIONS AND USES THEREOF” (priority 2008, published 2011).

This series concerns lysine riboswitch. The conditions noted are these: for binding / recognition by the lysine riboswitch (in words): qualitative, compared with lysine; for lower affinity than lysine for the RNA: binding to the riboswitch RNA, relative to lysine, Sudarsan 2003 and Blount 2007.

Take `NCCCCC[C@H](N)C(=O)O` [L-α-homolysine]: the “binding / recognition by the lysine riboswitch (in words)” value (“binding / recognition” for short) is “not efficiently bound”.
Turning to `C[N+](C)(C)CCCC[C@H](N)C(=O)[O-]` [N^6-trimethyl-L-lysine], the “binding / recognition” value was “precludes efficient recognition”.
Regarding `N=C(N)NCCCC[C@H](N)C(=O)O` [homoarginine], the “binding / recognition” value is on record as “precludes efficient recognition”.
With `NCCC[C@H](N)C(=O)O` [L-ornithine], the “binding / recognition” value is listed as “not efficiently bound”.
Consider `NCCSC[C@H](N)C(=O)O` [AEC, S-(2-aminoethyl)-L-cysteine], for which the “lower affinity than lysine for the RNA” value was 30 fold.
Regarding `NCCS(=O)(=O)C[C@H](N)C(=O)O` [AESA, L-3-[(2-aminoethyl)-sulfonyl]-alanine], the “lower affinity than lysine for the RNA” value is 7 fold.
